Assay results taken from patent US6110967A, “Epoxysuccinamide derivative or salt thereof” (Taiho Pharmaceuticals Co., Ltd., priority 1997, dated 2000).
Structures can show the parent of a compound that is named as a salt.

Legend:
Cathepsin B = biological target: T1, Cathepsin B (Rattus norvegicus, UniProt P00787); assay: Determination of inhibition activity against cathepsin B (substrate Z-Arg-Arg-MCA); assay type: biochemical; conditions: cathepsin B purified from rat liver, pH 5.5, 30° C., 10 minutes
T1 construct: extracted from a rat liver and completely purified; from tissue; host or cells: rat liver
Description: (§1) Determination of inhibition activity against cathepsin L and cathepsin B:
One that extracted from a rat liver and completely purified in accordance with the method described in Biochem. Biophys. Res. Commun., 83, 513-520 (1978) was used as cathepsin B, and as a substrate thereof, Z-Arg-Arg-MCA was used.
(§2) Each cathepsin was diluted with a diluent (0.1% Brij 35) to adjust its concentration to 0.3 U (0.1 U: a concentration at which 1.0 nmol of MCA is released per minute at 37° C.). An activator/buffer (340 mM sodium acetate, 60 mM acetic acid, 4 mM disodium EDTA; pH 5.5; 250 μl) was added to the solution (500 μl). After the mixture was incubated for 1 minute at 30° C., a specimen solution of the predetermined concentration and a substrate solution ([…]) were added to conduct a reaction for 10 minutes. The reaction was stopped with a reaction terminator (100 mM sodium monochloroacetate, […] sodium acetate, […] acetic acid; pH 4.3; 1 ml) to determine the fluorescence intensity of aminomethylcoumarin isolated under fluorescence 460 nm in wavelength obtained by excitation at a wavelength of 370 nm using a fluorometer.

Cathepsin L = biological target: T2, Cathepsin L (Rattus norvegicus, UniProt P07154); assay: Determination of inhibition activity against cathepsin L (substrate Z-Phe-Arg-MCA); assay type: biochemical; conditions: cathepsin L purified from rat liver, pH 5.5, 30° C., 10 minutes
T2 construct: extracted from a rat liver and completely purified; from tissue; host or cells: rat liver
Description: as §1
Cathepsin L that extracted from a rat liver and completely purified in accordance with the method described in J. Biochem., 84, 650-671 (1978) was used, and as a substrate thereof, Z-Phe-Arg-MCA was used.
as §2

T1 sequence (P00787 80-126 limits assumed): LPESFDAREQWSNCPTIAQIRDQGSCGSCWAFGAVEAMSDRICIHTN
T1 sequence (P00787 129-333 limits assumed): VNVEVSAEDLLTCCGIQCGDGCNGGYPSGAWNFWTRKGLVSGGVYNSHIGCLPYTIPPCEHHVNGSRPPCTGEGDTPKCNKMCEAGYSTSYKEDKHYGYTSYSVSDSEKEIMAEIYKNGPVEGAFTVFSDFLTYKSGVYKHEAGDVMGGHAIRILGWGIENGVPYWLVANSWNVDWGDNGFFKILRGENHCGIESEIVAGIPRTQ
T2 sequence (P07154 114-288 limits assumed): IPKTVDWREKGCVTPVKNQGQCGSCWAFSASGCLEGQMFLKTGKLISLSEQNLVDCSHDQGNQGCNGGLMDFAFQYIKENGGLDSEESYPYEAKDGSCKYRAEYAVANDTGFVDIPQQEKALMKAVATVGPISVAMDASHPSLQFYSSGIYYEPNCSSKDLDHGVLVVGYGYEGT
T2 sequence (P07154 291-334 limits assumed): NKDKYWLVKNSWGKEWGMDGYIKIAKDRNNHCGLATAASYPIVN

Compound | IC50 (Cathepsin B) [nM] | IC50 (Cathepsin L) [nM] | IC50 (M) Cathepsin B (Cathepsin B)
CN(C)C(=O)[C@H](Cc1ccccc1)NC(=O)[C@H]1O[C@@H]1C(=O)Nc1cccc(CN)c1 [Compound 6, N-{L-3-trans-[3-(Aminomethyl)phenylcarbamoyl]oxirane-2-carbonyl}-L-phenylalanine dimethylamide hydrochloride] | > 100000 | 200 | 
CN(C)C(=O)[C@H](Cc1ccccc1)NC(=O)[C@H]1O[C@@H]1C(=O)Nc1ccc(CN)cc1 [Compound 8, N-{L-3-trans-[4-(Aminomethyl)phenylcarbamoyl]oxirane-2-carbonyl}-L-phenylalanine dimethylamide hydrochloride] | > 100000 | < 100 | 
CN(C)C(=O)[C@H](Cc1ccccc1)NC(=O)[C@H]1O[C@@H]1C(=O)N1CCN(Cc2ccccc2)CC1 [Compound 9, N-[L-3-trans-(4-Benzylpiperazin-1-yl-carbonyl)oxirane-2-carbonyl]-L-phenylalanine dimethylamide] | > 100000 | 850 | 
CN(C)C(=O)[C@H](Cc1ccccc1)NC(=O)[C@H]1O[C@@H]1C(=O)N(CCN)c1ccccc1 [Compound 11, N-{L-3-trans-[N-(2-Aminoethyl)-N-phenylcarbamoyl]oxirane-2-carbonyl}-L-phenylalanine dimethylamide hydrochloride] |  | 2400 | No inhibition
CC(C)(C)OC(=O)NCc1ccc(NC(=O)[C@H]2O[C@@H]2C(=O)N[C@@H](Cc2ccccc2)C(=O)NCCc2ccccc2)cc1 [Compound 12, N-{L-3-trans-[4-(t-Butoxycarbonylaminomethyl)phenylcarbamoyl]oxirane-2-carbonyl}-L-phenylalanine-2-phenylethylamide] | > 10000 | 2.5 | 
CN(C)C(=O)[C@H](Cc1ccccc1)NC(=O)[C@H]1O[C@@H]1C(=O)N1CCN(C(=O)OC(C)(C)C)CC1 [Compound 15, N-[L-3-trans-(4-t-Butoxycarbonylpiperazin-1-yl-carbonyl)-oxirane-2-carbonyl]-L-phenylalanine dimethylamide] | > 100000 | 220 | 
CN(C)C(=O)[C@H](Cc1ccccc1)NC(=O)[C@H]1O[C@@H]1C(=O)NC1CCN(Cc2ccccc2)CC1 [Compound 18, N-{L-3-trans-[(1-Benzylpiperidin-4-yl)carbamoyl]oxirane-2-carbonyl}-L-phenylalanine dimethylamide hydrochloride] | > 100000 | 290 | 
CN(C)C(=O)[C@H](Cc1ccccc1)NC(=O)[C@H]1O[C@@H]1C(=O)NCc1ccc(N)cc1 [Compound 20, N-[L-3-trans-(4-Aminobenzylcarbamoyl)oxirane-2-carbonyl]-L-phenylalanine dimethylamide hydrochloride] | > 100000 | 670 | 
CN(C)C(=O)[C@H](Cc1ccccc1)NC(=O)[C@H]1O[C@@H]1C(=O)NCCNC(=O)OCc1ccccc1 [Compound 22, N-{L-3-trans-[2-(Benzyloxycarbonylamino)ethylcarbamoyl]oxirane-2-carbonyl}-L-phenylalanine dimethylamide] | > 100000 | 470 | 
CN(C)C(=O)[C@H](Cc1ccccc1)NC(=O)[C@H]1O[C@@H]1C(=O)NCCc1csc(N)n1 [Compound 39, N-{L-3-trans-[2-(2-Aminothiazol-4-yl)ethylcarbamoyl]oxirane-2-carbonyl}-L-phenylalanine dimethylamide hydrochloride] | > 100000 | 350 | 
CN(C)C(=O)[C@H](Cc1ccccc1)NC(=O)[C@H]1O[C@@H]1C(=O)N1CCN(c2nccc(N)n2)CC1 [Compound 90] | > 10000 | 97 | 

Now from value to compound:

IC50 (Cathepsin B) [nM] | IC50 (Cathepsin L) [nM] | IC50 (M) Cathepsin B (Cathepsin B) | Compound
> 100000 | 2.2 |  | CCc1ccc(NC(=O)[C@H]2O[C@@H]2C(=O)N[C@@H](Cc2ccccc2)C(=O)N(C)C)cc1 [Compound 29, N-[L-3-trans-(4-Ethylphenylcarbamoyl)oxirane-2-carbonyl]-L-phenylalanine dimethylamide]
> 100000 | 45 |  | CN(C)C(=O)[C@H](Cc1ccccc1)NC(=O)[C@H]1O[C@@H]1C(=O)Nc1ccc(C(C)(C)C)cc1 [Compound 37, N-[L-3-trans-(4-t-Butylphenylcarbamoyl)oxirane-2-carbonyl]-L-phenylalanine dimethylamide]
> 10000 | 33 |  | Cc1cc(NC(=O)[C@H]2O[C@@H]2C(=O)N[C@@H](Cc2ccccc2)C(=O)N(C)C)no1 [Compound 41]
77000 | 6 |  | CN(C)C(=O)[C@H](Cc1ccccc1)NC(=O)[C@H]1O[C@@H]1C(=O)Nc1ccc(CNC(=O)c2ccccc2)cc1 [Compound 44, N-{L-3-trans-[4-(Benzoylaminomethyl)phenylcarbamoyl]oxirane-2-carbonyl}-L-phenylalanine dimethylamide]
85000 | 34 |  | CN(C)C(=O)[C@H](Cc1ccccc1)NC(=O)[C@H]1O[C@@H]1C(=O)NCCNc1ccc([N+](=O)[O-])cn1 [Compound 46, N-{L-3-trans-[2-(5-Nitropyridin-2-yl)aminoethylcarbamoyl]oxirane-2-carbonyl}-L-phenylalanine dimethylamide]
45000 | 60 |  | CN(C)C(=O)[C@H](Cc1ccccc1)NC(=O)[C@H]1O[C@@H]1C(=O)Nc1ccc(Oc2ccccc2)cc1 [Compound 48, N-[L-3-trans-(4-Phenoxyphenylcarbamoyl)oxirane-2-carbonyl]-L-phenylalanine dimethylamide]
> 10000 | 47 |  | CN(C)C(=O)[C@H](Cc1ccccc1)NC(=O)[C@H]1O[C@@H]1C(=O)NCCc1ccccn1 [Compound 56, N-{L-3-trans-[2-(Pyridin-2-yl)ethylcarbamoyl]oxirane-2-carbonyl}-L-phenylalanine dimethylamide]
> 100000 | < 1 |  | CNC(=O)[C@H](Cc1ccccc1)NC(=O)[C@H]1O[C@@H]1C(=O)NCCc1ccccn1 [Compound 62, N-{L-3-trans-[2-(Pyridin-2-yl)ethylcarbamoyl]oxirane-2-carbonyl}-L-phenylalanine methylamide]
 | 94 | No inhibition | CN(C)C(=O)[C@H](Cc1ccccc1)NC(=O)[C@H]1O[C@@H]1C(=O)NCCc1ccc(N)cc1 [Compound 73, N-{L-3-trans-[2-(4-Aminophenyl)ethylcarbamoyl]oxirane-2-carbonyl}-L-phenylalanine dimethylamide]
> 10000 | 82 |  | CN(C)C(=O)[C@H](Cc1ccccc1)NC(=O)[C@H]1O[C@@H]1C(=O)NCCc1ccc(N)cn1 [Compound 77, N-{L-3-trans-[2-(5-Aminopyridin-2-yl)ethylcarbamoyl]oxirane-2-carbonyl}-L-phenylalanine dimethylamide]
> 10000 | 46 |  | CC(=N)Nc1ccc(CCNC(=O)[C@H]2O[C@@H]2C(=O)N[C@@H](Cc2ccccc2)C(=O)N(C)C)cc1 [Compound 86, N-{L-3-trans-[2-(4-Acetoamidinophenyl)ethylcarbamoyl]oxirane-2-carbonyl}-L-phenylalanine dimethylamide hydrobromide]
